{"source": "patent US9801373B2", "about": "“Compounds for alleviating phosphate starvation symptoms in plants” (Commissariat a l'Energie Atomique et aux Energies …, priority 2012, dated 2017)", "type_in_all_cases": "in vivo, Arabidopsis thaliana", "key": {"[1]": {"tested_on": "PAP12, PAP17 and PAP22 genes", "assay": "Expression of acid phosphatase (PAP) genes", "conditions": "−Pi", "procedure": "(§1) Plant RNA was extracted with the RNeasy kit (QIAGEN, France). For transcriptome data, RNA were analysed by the CATMA technology (Complete Arabidopsis Transcriptome Microarray). For qPCR, poly(dT) cDNA were prepared from 500 ng total RNA with Superscript III reverse transcriptase (Invitrogen, France) and analysed on a LightCycler 480 apparatus (Roche Diagnostics, France) with the SYBR Green I Master kit (Roche Diagnostics, France) according to the manufacturer's instructions. Targets were quantified with specific primer pairs designed with Primer3 website (http://frodo.wi.mit.edu/primer3/) (see Table II below). Biological triplicates were performed for all experiments. Expression levels were normalized using At2g16600, At3g04120, At1g35160 and At1g32050 genes."}, "[2]": {"tested_on": "PHT1;4, PHT1;8, MGD3, PLDz2, SQD2, SPX1", "assay": "qPCR of Pi starvation regulated genes in lpr1 mutant", "conditions": "14 days-old plants, FIG. 12", "procedure": "as §1"}, "[3]": {"tested_on": "lpr1, lpr2 and lpi mutants", "assay": "Primary root growth of mutants with reduced root sensitivity to Pi starvation", "conditions": "7-days-old plants, PTN1 40 μM, FIG. 8", "description": "A “chemical genetics” approach has been carried out to isolate compounds that inhibit the phosphate (Pi) response in Arabidopsis thaliana. Compounds were screened for their ability to inhibit the expression of a phosphate starvation marker, namely the high affinity Pi transporter PHT1,4 gene. For the screening, the A. thaliana pht1;4-1 line (ecotype Wassilewskija) was chosen (Misson et al., 2004). It contains a T-DNA construct inserted into Pht1;4 gene creating a transcriptional fusion with a GUS reporter gene. For phenotypic analyses, A. thaliana Columbia and various lines derived from this ecotype were used. They are either transgenic lines expressing reporter gene as cycB1::GUS (Colón Carmona et al., 1999), MGD3::LUC, PHT1;4::LUC, At1g73010::LUC or various mutants affecting root response to low Pi such as: pdr2 (Ticconi et al., 2004), lpr1, lpr2 (Svistoonoff et al., 2007), lpi1, lpi2 and lpi3 (Sanchez-Calderon et al., 2006).\nIn the Pi deficient medium, NaCl (0.5 mM) was used to replace the equivalent amount of sodium provided by NaH2PO4. For controls of the effects of the compounds, 1% of DMSO (Dimethyl sulfoxid, SIGMA, 472301), solvent for the tested compounds, was added. […] Root architecture and aerial part area were quantified using program ImageJ."}, "[4]": {"tested_on": "lpr1 mutant", "assay": "Shoot growth of lpr1 mutant", "conditions": "−Pi, FIG. 11", "procedure": "In the Pi deficient medium, NaCl (0.5 mM) was used to replace the equivalent amount of sodium provided by NaH2PO4. For controls of the effects of the compounds, 1% of DMSO (Dimethyl sulfoxid, SIGMA, 472301), solvent for the tested compounds, was added. After 2 days at 4° C., the plates were placed in a vertical position and plants were grown in a culture chamber under a 16 h light/8 h dark regime (24/21° C., 150 μE m^−2s^−1). For 4 weeks culture, large plates (24×24 cm) were placed in a horizontal position. Root architecture and aerial part area were quantified using program ImageJ."}}, "note": "“Also recorded” adds a separate entry of the source."}
{"compound": "O=c1c(Sc2ccc(Cl)cc2)c(Sc2ccc(Cl)cc2)c1=O", "note": "[PTN1]", "values": [{"measurement": "expression level of PAP12, PAP17 and PAP22 genes", "setting": "[1]", "value": "reduced the expression level"}, {"measurement": "expression of PHT1;4, PHT1;8, MGD3, PLDz2, SQD2, SPX1 in lpr1", "setting": "[2]", "value": "repressed the expression of these genes in lpr1 to a similar level as observed in the WT"}, {"measurement": "primary root growth of lpr1 or lpi mutants", "setting": "[3]", "value": "no additive effect; also recorded: did not impact the primary root growth"}, {"measurement": "anthocyanins accumulation in leaves of lpr1", "setting": "[4]", "value": "substantially suppressed this accumulation"}]}
